From ChEMBL document CHEMBL1201862, “PubChem BioAssay data set” (2004)
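A five-concentration, 48-hour dose response in 96-well plates underlies each endpoint, interpolated linearly between surrounding concentrations. At the GI50, growth is halved.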 The source made the active and inactive calls. No stated cut-off is given here; in the data, active = GI50 up to about 1.1 µM and inactive = higher.

Experiments:
Test in all cases: growth of human tumour cells (NCI), 48 h
[1] = tested on: A498
[2] = tested on: A549
[3] = tested on: CAKI-1
[4] = tested on: DU-145
[5] = tested on: HCC 2998
[6] = tested on: HOP-92
[7] = tested on: IGROV-1
[8] = tested on: KM12
[9] = tested on: Malme-3M
[10] = tested on: OVCAR-4
[11] = tested on: OVCAR-8
[12] = tested on: PC-3
[13] = tested on: RPMI-8226
[14] = tested on: SF-295
[15] = tested on: SK-MEL-2
[16] = tested on: SNB-19
[17] = tested on: T47D
[18] = tested on: TK-10
[19] = tested on: U-251
[20] = tested on: UACC-257

Compound	GI50 [1]	GI50 [2]	GI50 [3]	GI50 [4]	GI50 [5]	GI50 [6]	GI50 [7]	GI50 [8]	GI50 [9]	GI50 [10]	GI50 [11]	GI50 [12]	GI50 [13]	GI50 [14]	GI50 [15]	GI50 [16]	GI50 [17]	GI50 [18]	GI50 [19]	GI50 [20]
COc1ccc(Cc2cc(OC)c(OC)c(OC)c2)cc1O	25.2 µM (inactive)	0.119 µM (active)	> 24.7 µM (inactive)	0.0231 µM (active)	2.41 µM (inactive)	0.119 µM (active)	3.78 µM (inactive)	0.0193 µM (active)	0.0389 µM (active)	42.5 µM (inactive)	0.0769 µM (active)	< 0.0171 µM (active)	< 0.021 µM (active)	0.286 µM (active)	0.0702 µM (active)	0.0352 µM (active)	53.8 µM (inactive)	> 90.4 µM (inactive)	0.0982 µM (active)	3.95 µM (inactive)
NS(=O)(=O)c1ccc(NCc2cnc3ccccc3c2)cc1	> 100 µM (inactive)	> 100 µM (inactive)	> 100 µM (inactive)	> 100 µM (inactive)	> 100 µM (inactive)	49.8 µM (inactive)	49.4 µM (inactive)	> 100 µM (inactive)	> 100 µM (inactive)	> 100 µM (inactive)	34.7 µM (inactive)	> 100 µM (inactive)	> 100 µM (inactive)	> 100 µM (inactive)	> 100 µM (inactive)	> 100 µM (inactive)	> 100 µM (inactive)	> 100 µM (inactive)	> 100 µM (inactive)	> 100 µM (inactive)
Nc1ncnc2nn(C3OC(CO)C(O)C3O)nc12 (stereo not given)	10.2 µM (inactive)	9.16 µM (inactive)	8.55 µM (inactive)	5.26 µM (inactive)	7.6 µM (inactive)	20 µM (inactive)	4.12 µM (inactive)	10.1 µM (inactive)	20.5 µM (inactive)	28 µM (inactive)	8.11 µM (inactive)	17.3 µM (inactive)	3.64 µM (inactive)	22 µM (inactive)	2.99 µM (inactive)	29.6 µM (inactive)	4.21 µM (inactive)	3.56 µM (inactive)	23.1 µM (inactive)	23.2 µM (inactive)
CCOC(=O)c1oc2cc3c(c4c2c1-c1ccccc1N4C)C=CC(C)(C)O3	25.9 µM (inactive)	24.5 µM (inactive)	15.9 µM (inactive)	18.7 µM (inactive)	65.3 µM (inactive)	3.72 µM (inactive)	15.8 µM (inactive)	16.3 µM (inactive)	12 µM (inactive)	6.58 µM (inactive)	5.85 µM (inactive)	12.3 µM (inactive)	12.8 µM (inactive)	8.81 µM (inactive)	26.6 µM (inactive)	14.7 µM (inactive)	16.9 µM (inactive)	7.1 µM (inactive)	7.5 µM (inactive)	31.2 µM (inactive)
[N-]=[N+]=NC1C(O)C(CO)OC1n1ccc(=O)[nH]c1=O (stereo not given)	> 875 µM (inactive)	> 875 µM (inactive)	> 875 µM (inactive)	> 875 µM (inactive)	> 875 µM (inactive)	> 875 µM (inactive)	> 875 µM (inactive)	> 875 µM (inactive)	> 875 µM (inactive)	> 875 µM (inactive)	> 875 µM (inactive)	> 875 µM (inactive)	> 875 µM (inactive)	> 875 µM (inactive)	> 875 µM (inactive)	> 875 µM (inactive)	> 875 µM (inactive)	> 875 µM (inactive)	> 875 µM (inactive)	> 875 µM (inactive)
C=C(C)C(=O)O[C@H]1CC2=CC(CC(C)=C[C@H]3OC(=O)C(=C)C13)OC2=O (stereo not given in full)	35.8 µM (inactive)	> 100 µM (inactive)	17.2 µM (inactive)	15.5 µM (inactive)	35 µM (inactive)	16.4 µM (inactive)	33 µM (inactive)	20.3 µM (inactive)	20.2 µM (inactive)	34.8 µM (inactive)	35.8 µM (inactive)	23 µM (inactive)	2.93 µM (inactive)	> 100 µM (inactive)	22.1 µM (inactive)	> 100 µM (inactive)	11.2 µM (inactive)	8.02 µM (inactive)	> 100 µM (inactive)	25.5 µM (inactive)
C[C@H]1[C@H]2[C@H]3CC[C@@H]4[C@@]5(C)CC[C@H](O)C(C)(C)[C@@H]5CC[C@@]4(C)[C@]3(C)C[C@H](O)[C@@]2(C)C[C@H]2O[C@]21C	21.4 µM (inactive)	16.7 µM (inactive)	25.1 µM (inactive)	15.5 µM (inactive)	17.5 µM (inactive)	17.7 µM (inactive)	27.4 µM (inactive)	19.8 µM (inactive)	20 µM (inactive)	25.1 µM (inactive)	19.6 µM (inactive)	13.7 µM (inactive)	19.4 µM (inactive)	15.6 µM (inactive)	19 µM (inactive)	20.6 µM (inactive)	16 µM (inactive)	22.3 µM (inactive)	17.2 µM (inactive)	16.8 µM (inactive)
COc1cc(C2SC(=N)Nc3c2c(C)nn3C(=O)c2ccccc2O)ccc1O (stereo not given)	4.51 µM (inactive)	1.36 µM (inactive)	> 2.42 µM (inactive)	1.69 µM (inactive)	> 6.62 µM (inactive)	> 10 µM (inactive)	1.61 µM (inactive)	> 2.13 µM (inactive)	0.513 µM (active)	> 2.1 µM (inactive)	> 2.33 µM (inactive)	> 4.03 µM (inactive)	> 2.09 µM (inactive)	1.28 µM (inactive)	> 2.86 µM (inactive)	> 2.39 µM (inactive)	0.971 µM (active)	> 2.96 µM (inactive)	1.74 µM (inactive)	0.94 µM (active)
COC1=CC(=O)O/C1=C(\OC)C1OC1c1ccccc1 (stereo not given)	> 100 µM (inactive)	> 100 µM (inactive)	> 100 µM (inactive)	> 100 µM (inactive)	> 100 µM (inactive)	> 100 µM (inactive)	> 100 µM (inactive)	> 100 µM (inactive)	> 100 µM (inactive)	> 100 µM (inactive)	> 100 µM (inactive)	> 100 µM (inactive)	> 100 µM (inactive)	> 100 µM (inactive)	> 100 µM (inactive)	> 100 µM (inactive)	76 µM (inactive)	> 100 µM (inactive)	> 100 µM (inactive)	> 100 µM (inactive)
CN(C)CCCOC(=O)C(c1ccccc1)C1(O)CCSCC1 (stereo not given)	> 100 µM (inactive)	> 100 µM (inactive)	32.7 µM (inactive)	> 100 µM (inactive)	> 100 µM (inactive)	> 100 µM (inactive)	> 100 µM (inactive)	68.2 µM (inactive)	> 100 µM (inactive)	> 100 µM (inactive)	> 100 µM (inactive)	> 100 µM (inactive)	> 100 µM (inactive)	> 100 µM (inactive)	> 100 µM (inactive)	26.8 µM (inactive)	> 100 µM (inactive)	> 100 µM (inactive)	> 100 µM (inactive)	> 100 µM (inactive)
O=C1/C(=C/c2ccc(Cl)cc2)N=C(c2ccccc2)N1c1nc2ccc(Sc3ccccc3)cc2[nH]1	19.8 µM (inactive)	36.1 µM (inactive)	30.1 µM (inactive)	35.3 µM (inactive)	17.4 µM (inactive)	45.9 µM (inactive)	40.6 µM (inactive)	20.7 µM (inactive)	23.4 µM (inactive)	34.7 µM (inactive)	30.1 µM (inactive)	30.6 µM (inactive)	19.7 µM (inactive)	25.9 µM (inactive)	15.6 µM (inactive)	37.6 µM (inactive)	23.1 µM (inactive)	23.8 µM (inactive)	31.3 µM (inactive)	22.3 µM (inactive)
COc1ccc2c(c1)CCC(CN1CCN(CCOC(c3ccc(F)cc3)c3ccc(F)cc3)CC1)C2O (stereo not given)	3.93 µM (inactive)	16.3 µM (inactive)	15.8 µM (inactive)	18.1 µM (inactive)	3.49 µM (inactive)	12.2 µM (inactive)	13.8 µM (inactive)	19.1 µM (inactive)	14.4 µM (inactive)	14.2 µM (inactive)	13.8 µM (inactive)	11.7 µM (inactive)	6.75 µM (inactive)	17.9 µM (inactive)	15 µM (inactive)	17.2 µM (inactive)	11.2 µM (inactive)	15 µM (inactive)	13.3 µM (inactive)	12.9 µM (inactive)
COC(=O)[C@]12C3=C(O)C(=O)C[C@H]1OC[C@H]2C=CC3	> 100 µM (inactive)	> 100 µM (inactive)	> 100 µM (inactive)	> 100 µM (inactive)	> 100 µM (inactive)	> 100 µM (inactive)	> 100 µM (inactive)	> 100 µM (inactive)	> 100 µM (inactive)	> 100 µM (inactive)	> 100 µM (inactive)	> 100 µM (inactive)	> 100 µM (inactive)	> 100 µM (inactive)	> 100 µM (inactive)	> 100 µM (inactive)	> 100 µM (inactive)	> 100 µM (inactive)	> 100 µM (inactive)	> 100 µM (inactive)
COC(=O)[C@@]12C(=O)C=CC(=O)[C@@H]1C1C(=CC2COC(C)=O)O[C@@H]2OC3(CCCCC3)O[C@H]12 (stereo not given in full)	22.8 µM (inactive)	14.5 µM (inactive)	12.6 µM (inactive)	18.3 µM (inactive)	16.1 µM (inactive)	8.49 µM (inactive)	16 µM (inactive)	13 µM (inactive)	15.7 µM (inactive)	5.24 µM (inactive)	7.94 µM (inactive)	12.6 µM (inactive)	2.99 µM (inactive)	16.1 µM (inactive)	20.2 µM (inactive)	16.1 µM (inactive)	3.66 µM (inactive)	8.38 µM (inactive)	15.6 µM (inactive)	16.3 µM (inactive)
